Assay results as given in PMC6442119, “The antitumor activity of CYB-L10, a human topoisomerase IB catalytic inhibitor” (Journal of Enzyme Inhibition and Medicinal Chemistry, 2019).

Experiments:
Experiment in all cases: NCI60 assay
Assay type in all cases: cell-based
A549/ATCC = details: Homo sapiens, Non-small cell lung cancer, 48 h
Protocol: (§1) CYB-L10 was tested using the protocols by the NCI, which has been described previously. […] The overall antiproliferative potential is quantified as a mean-graph midpoint (MGM). […] It was selected and submitted to National Cancer Institute (NCI, USA) for a developmental therapeutics assay against the 60 clinical tumor cell lines representing nine tissue types (NCI60)[23–25]. The tumor cells were incubated with CYB-L10 for 48 h and stained with sulphorhodamine B dye. Cell growth inhibition (GI50) was calculated relative to the control without compound.

IGROV1 = details: Homo sapiens, IGROV-1; Ovarian cancer, IGROV1, 48 h
Protocol: as §1

SK-OV-3 = details: Homo sapiens; Ovarian cancer, SK-OV-3, 48 h
Protocol: as §1

SNB-19 = details: Homo sapiens; CNS cancer, SNB-19, 48 h
Protocol: as §1

HCC-2998 = details: Homo sapiens; Colon cancer, HCC-2998, 48 h
Protocol: as §1

OVCAR-3 = details: Homo sapiens; Ovarian cancer, OVCAR-3, 48 h
Protocol: as §1

NCI-H23 = details: Homo sapiens; Non-small cell lung cancer, NCI-H23, 48 h
Protocol: as §1

UACC-62 = details: Homo sapiens; Melanoma, UACC-62, 48 h
Protocol: as §1

SR = details: Homo sapiens, Leukemia, 48 h
Protocol: as §1

HS 578T = details: Homo sapiens, Breast cancer, 48 h
Protocol: as §1

HCT116 = details: Homo sapiens, HCT-116, Colon cancer, HCT116, 48 h
Protocol: as §1

KM12 = details: Homo sapiens; Colon cancer, KM12, 48 h
Protocol: as §1

OVCAR-4 = details: Homo sapiens; Ovarian cancer, OVCAR-4, 48 h
Protocol: as §1

HCT-15 = details: Homo sapiens; Colon cancer, HCT-15, 48 h
Protocol: as §1

M14 = details: Homo sapiens; Melanoma, M14, 48 h
Protocol: as §1

U251 = details: Homo sapiens, U-251; CNS cancer, U251, 48 h
Protocol: as §1

T-47D = details: Homo sapiens, T47D, Breast cancer, 48 h
Protocol: as §1

MDA-MB-231/ATCC = details: Homo sapiens, Breast cancer, 48 h
Protocol: as §1

SF-539 = details: Homo sapiens; CNS cancer, SF-539, 48 h
Protocol: as §1

MCF7 = details: Homo sapiens, Breast cancer, MCF7, 48 h
Protocol: as §1

ACHN = details: Homo sapiens, Renal cancer, 48 h
Protocol: as §1

COLO 205 = details: Homo sapiens; Colon cancer, COLO 205, 48 h
Protocol: as §1

SNB-75 = details: Homo sapiens; CNS cancer, SNB-75, 48 h
Protocol: as §1

SK-MEL-5 = details: Homo sapiens; Melanoma, SK-MEL-5, 48 h
Protocol: as §1

RXF 393 = details: Homo sapiens; Renal cancer, RXF 393, 48 h
Protocol: as §1

786-0 = details: Homo sapiens; Renal cancer, 786-0, 48 h
Protocol: as §1

DU-145 = details: Homo sapiens, Prostate cancer, DU-145, 48 h
Protocol: as §1

SK-MEL-2 = details: Homo sapiens; Melanoma, SK-MEL-2, 48 h
Protocol: as §1

MALME-3M = details: Homo sapiens, Melanoma, 48 h
Protocol: as §1

CCRF-CEM = details: Homo sapiens, Leukemia, 48 h
Protocol: as §1

LOX IMVI = details: Homo sapiens, Melanoma, 48 h
Protocol: as §1

NCI-H460 = details: Homo sapiens; Non-small cell lung cancer, NCI-H460, 48 h
Protocol: as §1

HT29 = details: Homo sapiens, HT-29; Colon cancer, HT29, 48 h
Protocol: as §1

NCI-H322M = details: Homo sapiens, Non-small cell lung cancer, 48 h
Protocol: as §1

NCI/ADR-RES = details: Homo sapiens, Ovarian cancer, 48 h
Protocol: as §1

PC-3 = details: Homo sapiens; Prostate cancer, PC-3, 48 h
Protocol: as §1

BT-549 = details: Homo sapiens; Breast cancer, BT-549, 48 h
Protocol: as §1

NCI-H226 = details: Homo sapiens; Non-small cell lung cancer, NCI-H226, 48 h
Protocol: as §1

EKVX = details: Homo sapiens, Non-small cell lung cancer, 48 h
Protocol: as §1

TK-10 = details: Homo sapiens; Renal cancer, TK-10, 48 h
Protocol: as §1

HOP-62 = details: Homo sapiens; Non-small cell lung cancer, HOP-62, 48 h
Protocol: as §1

Structure (SMILES): O=C1c2cccnc2C(=O)c2c1c(C(=O)OCCN1CCOCC1)c1ccccn21 [CYB-L10]
- GI50 (A549/ATCC): 20.5 nM
- GI50 (IGROV1): 46.2 nM
- GI50 (SK-OV-3): < 10 nM
- GI50 (SNB-19): < 10 nM
- GI50 (HCC-2998): 252 nM
- GI50 (OVCAR-3): 170 nM
- GI50 (NCI-H23): < 10 nM
- GI50 (UACC-62): < 10 nM
- GI50 (SR): < 10 nM
- GI50 (HS 578T): 36.9 nM
- GI50 (HCT116): 41.7 nM
- GI50 (KM12): 168 nM
- GI50 (OVCAR-4): 1220 nM
- GI50 (HCT-15): 39.5 nM
- GI50 (M14): < 10 nM
- GI50 (U251): 10.9 nM
- GI50 (T-47D): 961 nM
- GI50 (MDA-MB-231/ATCC): 1620 nM
- GI50 (SF-539): < 10 nM
- GI50 (MCF7): < 10 nM
- GI50 (ACHN): < 10 nM
- GI50 (COLO 205): 137 nM
- GI50 (SNB-75): < 10 nM
- GI50 (SK-MEL-5): 28.5 nM
- GI50 (RXF 393): 35.1 nM
- GI50 (786-0): 29 nM
- GI50 (DU-145): 30.5 nM
- GI50 (SK-MEL-2): 46.2 nM
- GI50 (MALME-3M): 45 nM
- GI50 (CCRF-CEM): 379 nM
- GI50 (LOX IMVI): < 10 nM
- GI50 (NCI-H460): < 10 nM
- GI50 (HT29): 580 nM
- GI50 (NCI-H322M): 97.7 nM
- GI50 (NCI/ADR-RES): 36.8 nM
- GI50 (PC-3): 190 nM
- GI50 (BT-549): 55.8 nM
- GI50 (NCI-H226): 28.9 nM
- GI50 (EKVX): 1360 nM
- GI50 (TK-10): 361 nM
- GI50 (HOP-62): < 10 nM
